From BigSolDB 2.1

Cc1ccc(NC(=O)/C(=C/Cl)Sc2ccccc2)cc1
solubility (mole fraction)
Settings | 278.15 K | 283.15 K | 288.15 K | 293.15 K | 298.15 K | 303.15 K | 308.15 K | 313.15 K | 318.15 K
in 1,2-dichloroethane | 0.0353 | 0.0413 | 0.0512 | 0.0615 | 0.0773 | 0.0942 | 0.115 | 0.136 | 0.161
in 2-butanone | 0.0308 | 0.0365 | 0.0436 | 0.0529 | 0.0632 | 0.0772 | 0.0943 | 0.112 | 0.135
in 2-methyltetrahydrofuran | 0.0393 | 0.0466 | 0.0507 | 0.0604 | 0.0702 | 0.0858 | 0.103 | 0.126 | 0.145
in MTBE | 0.0068 | 0.0075 | 0.0092 | 0.0104 | 0.0132 | 0.0153 | 0.0187 | 0.0223 | 0.0277
in THF | 0.0849 | 0.0953 | 0.105 | 0.118 | 0.133 | 0.154 | 0.171 | 0.195 | 0.218
in acetone | 0.0216 | 0.0258 | 0.0296 | 0.0364 | 0.0452 | 0.0564 | 0.0707 | 0.0889 | 0.114
in acetonitrile | 0.0043 | 0.0051 | 0.0065 | 0.0086 | 0.0115 | 0.0148 | 0.02 | 0.0267 | 0.0362
in ethyl acetate | 0.0187 | 0.0233 | 0.0271 | 0.0331 | 0.0409 | 0.0522 | 0.0657 | 0.0794 | 0.0978
in isopropanol | 0.0019 | 0.0021 | 0.0025 | 0.0031 | 0.0041 | 0.0048 | 0.0063 | 0.0075 | 0.0093
in methyl acetate | 0.0153 | 0.0195 | 0.0228 | 0.028 | 0.0352 | 0.0471 | 0.0572 | 0.0693 | 0.0797
in tert-amyl alcohol | 0.0013 | 0.0015 | 0.0018 | 0.0026 | 0.0034 | 0.005 | 0.0068 | 0.0096 | 0.0129
in toluene | 0.014 | 0.0165 | 0.0202 | 0.0266 | 0.0318 | 0.0443 | 0.0551 | 0.069 | 0.0876
